# In PMC7288428, “Amaryllidaceae alkaloids with anti-Trypanosoma cruzi activity” (Parasites & Vectors, 2020):
# “And” between values parts separate entries of the source, which are not always exact repeats. Equal values may be shown once. Where a name gives a salt, the structure may show the parent alone. Read-outs that look alike come from different tables or passages of the source.
# What was measured:
# protozoa = tested on: protozoa; design: method as in ref 28, 29 = [28]; PMID 15541744; doi:10.1016/j.phytochem.2004.10.004; 28. Machocho AK Bastida J Codina C Viladomat F Brun R Chabra SC Augustamine type alkaloids from Crinum kirkii Phytochemistry. 2004 65 3143 3149 15541744 10.1016/j.phytochem.2004.10.004 || [29]; 29. Osorio EJ Berkov S Brun R Codina C Viladomat F Cabezas F In vitro antiprotozoal activity of alkaloids from Phaedranassa dubia (Amaryllidaceae) Phytochem Lett. 2010 3 161 163; conditions: cited from earlier work
# [1] = tested on: trypomastigotes from the T. cruzi strain Tulahuen C4; design: method as in ref 28 = [28]; PMID 15541744; doi:10.1016/j.phytochem.2004.10.004; 28. Machocho AK Bastida J Codina C Viladomat F Brun R Chabra SC Augustamine type alkaloids from Crinum kirkii Phytochemistry. 2004 65 3143 3149 15541744 10.1016/j.phytochem.2004.10.004; conditions: cited from earlier work
# [2] = tested on: T. cruzi intracellular amastigote forms; experiment: Anti-amastigote specific activity assay (Vero host cells); assay type: cell-based; conditions: Trypanosoma cruzi, 96 h, read-out: anti-amastigote activity (IC50)
# Vero cells = experiment: Vero cell toxicity assay (Alamar Blue); conditions: 4 days, mean (SD in text)
# HepG2 cells [3] = experiment: HepG2 cell toxicity assay (Alamar Blue); conditions: 2 days, mean (SD in text)
# T. cruzi [4] = tested on: T. cruzi; design: method as in earlier work; conditions: cited from earlier work
# HepG2 cells [5] = tested on: HepG2 cells; design: method as in PMID 7701000; conditions: cited from earlier work
# [6] = tested on: avian influenza virus H5N1; conditions: read-out: IC50 against avian influenza virus H5N1; cited from earlier work
# T. cruzi [7] = tested on: T. cruzi; design: method as in PMID 9810280, PMID 11301878, PMID 22673940; conditions: L6 cells as host; cited from earlier work
# ZIKA virus [8] = tested on: ZIKA virus; design: method as in PMID 28736217; conditions: cited from earlier work
# ZIKA virus [9] = tested on: ZIKA virus; design: method as in PMID 28736217; conditions: human forebrain organoids; cited from earlier work
# ZIKA virus [10] = tested on: ZIKA virus; design: method as in PMID 28736217; conditions: cited from earlier work; remark: listed apart in the source
smiles,measurement,setting,value
CC(=O)O[C@@H]1CC=C2CCN3Cc4cc5c(cc4[C@H]1[C@@H]23)OCO5 [1-O-acetylcaranine],antiprotozoal activity described before,protozoa,poor antiprotozoal agents
CC(=O)O[C@H]1C=C[C@@]23CCN(C)Cc4ccc(O)c(c42)O[C@H]3C1 [3-O-acetylsanguinine],IC50 against trypomastigotes,[1],2.3 µg/mL
same,IC50,"[1]; converted from μg/ml, read-out: IC50 against trypomastigotes",7.29 µM
"O=C(Cn1ccnc1[N+](=O)[O-])NCc1ccccc1 [BNZ, benznidazole, reference compound]",IC50,"[2]; intracellular amastigotes in Vero cells, mean (SD)",1.2 µM
same,"TC50, Vero cell toxicity assay",Vero cells,173.4 (43.57) µM and 173.4 µM
same,"TC50, HepG2 cell toxicity assay",HepG2 cells [3],168.76 µM
"COC1C=CC23c4cc5c(cc4CN(CC2O)C3C1)OCO5 (centres unmarked) [Haemanthamine, haemanthamine]",IC50 against T. cruzi,T. cruzi [4],1.8 µg/mL
same,IC50,"T. cruzi [4]; converted from µg/ml, read-out: IC50 against T. cruzi",5.97 µM
same,"TC50, Vero cell toxicity assay",Vero cells,11.52 µM
same,TC50 for HepG2 cells,HepG2 cells [5],13 µg/mL
same,TC50 for HepG2 cells,HepG2 cells [5]; converted from µg/ml,43.14 µM
same,"TC50, HepG2 cell toxicity assay",HepG2 cells [3],42.48 (6.96) µM and 42.48 µM
"CN1CCC2=C[C@H](O)[C@H]3OC(=O)c4cc5c(cc4[C@H]3[C@@H]21)OCO5 [Hippeastrine, hippeastrine]",IC50,[2]; Vero,3.31 µM
same,"TC50, Vero cell toxicity assay",Vero cells,45.99 µM
same,"TC50, Vero cell toxicity assay",Vero cells; listed as hippeastrine,45.99 (6.32) µM
same,TC50 for HepG2 cells,HepG2 cells [5],40 µg/mL
same,TC50 for HepG2 cells,HepG2 cells [5]; converted from µg/ml,126.85 µM
same,IC50,[6],47.5 µM
same,"TC50, HepG2 cell toxicity assay",HepG2 cells [3],128.10 µM
same,"TC50, HepG2 cell toxicity assay",HepG2 cells [3]; listed as hippeastrine,128.1 (12.26) µM
"O[C@H]1[C@H]2c3cc4c(cc3CN3CCC(=C[C@@H]1O)[C@H]23)OCO4 [Lycorine, lycorine]","TC50, Vero cell toxicity assay",Vero cells,5.21 µM
same,"TC50, Vero cell toxicity assay",Vero cells; listed as lycorine,5.21 (0.80) µM
same,activity against T. cruzi in previous studies,T. cruzi [7],inactive
same,"TC50, HepG2 cell toxicity assay",HepG2 cells [3],21.87 µM
same,"TC50, HepG2 cell toxicity assay",HepG2 cells [3]; listed as lycorine,21.87 (4.16) µM
"CO[C@H]1C=C2[C@H]3C[N@@](Cc4cc5c(cc43)OCO5)[C@H]2C[C@@H]1O [Montanine, montanine]","TC50, Vero cell toxicity assay",Vero cells,5.04 µM
same,"TC50, HepG2 cell toxicity assay",HepG2 cells [3],46.10 µM
same,"TC50, HepG2 cell toxicity assay",HepG2 cells [3]; listed as montanine,46.1 (11.99) µM
"O=C1N[C@@H]2C(=C[C@H](O)[C@@H](O)[C@H]2O)c2cc3c(c(O)c21)OCO3 [Narciclasine, narciclasine]","TC50, Vero cell toxicity assay",Vero cells,0.66 µM
same,"TC50, Vero cell toxicity assay",Vero cells; listed as narciclasine,0.66 (0.082) µM
same,"TC50, HepG2 cell toxicity assay",HepG2 cells [3],2.73 µM
same,"TC50, HepG2 cell toxicity assay",HepG2 cells [3]; listed as narciclasine,2.73 (0.67) µM
"CN1CC[C@@]23C=C[C@H](O)C[C@@H]2Oc2c(O)ccc(c23)C1 [Sanguinine, sanguinine]",antiprotozoal activity described before,protozoa,poor antiprotozoal agents
"CO[C@@H]1C=C[C@@]23c4cc5c(cc4CO[C@]2(O)CN(C)[C@H]3C1)OCO5 [Tazettine, tazettine]",antiprotozoal activity described before,protozoa,poor antiprotozoal agents
"C[C@H]1O[C@@H](O[C@H]2[C@@H](O)C[C@H](O[C@H]3[C@@H](O)C[C@H](O[C@H]4CC[C@@]5(C)[C@H](CC[C@@H]6[C@@H]5CC[C@]5(C)[C@@H](C7=CC(=O)OC7)CC[C@]65O)C4)O[C@@H]3C)O[C@@H]2C)C[C@H](O)[C@@H]1O [digitoxin, reference compound]","TC50, HepG2 cell toxicity assay",HepG2 cells [3],0.29 (0.14) µM
CN1CCC2=C[C@H](O)[C@H]3OC(=O)c4cc5c(cc4[C@H]3[C@@H]21)OCO5 [hippeastrine hydrobromide],effect on ZIKA virus in infected human neural progenitors,ZIKA virus [8],remove ZIKA virus from infected human neural progenitors
same,effect on ZIKV-induced microcephaly phenotype,ZIKA virus [9],recover a ZIKV-induced microcephaly phenotype in human forebrain organoids
same,effect on virus propagation in infected adult mice,ZIKA virus [10],suppress virus propagation in infected adult mice
